Columns and labels:
[1] = Topical administration via coronary perfusion/infusion catheter on arteriosclerotic lesion in the carotid artery, gamma camera measurement of activity at the lesion; type: in vivo, white New Zealand rabbit; conditions: for % of the dose at the lesion (activity at the lesion as proportion of total activity in the animal): Example 1, rabbit no. 1708, 0.48 mCi in 0.85 ml; for % of the dose at the lesion (activity in the lesion as proportion of total activity in the animal): Example 2, rabbit no. 1856, 1.91 mCi in 1.0 ml
Experimental: The test animal, a white New Zealand rabbit (internal animal identification no.: 1708, male, 3.7 kg of body weight), was prepared 4 weeks before the actual administration experiment:
Under anesthesia (Rompun/Ketavet 1:2, 1 ml/kg of body weight, i.m. administration), the endothelium was damaged with a 2F Fogarthy balloon catheter in the arteria carotis dextra (balloon denudation). Then, the animal received a special diet with an addition of 0.2% cholesterol. The test animal developed an arteriosclerotic lesion on the balloon-denuded spot created by this pretreatment.
(§1) Topical administration of HMPAO that was labeled with technetium 99m was carried out on the anesthetized test animal (anesthesia type s.o.) via a coronary perfusion/infusion catheter (dispatch 3.0, Xtra slippery coating, manufacturer: Boston Scientific Corporation, Ratingen) directly on the lesion in the carotid artery. The radioactive dose of 0.48 mCi (=17.76 MBq) was administered in a volume of 0.85 ml.
(§2) During the entire experiment, the test animal was under a gamma camera (Elscint SP4 HR) to measure the dispersion of radioactivity in the body. The activity at the lesion was set as a proportion of the total activity (measured at this time in the animal). In the case of this test animal, there was found:
The test animal, a white New Zealand rabbit (internal animal identification no.: 1856, male, 3.3 kg of body weight), was prepared 4 weeks before the actual administration experiment as follows:
as §1, with “The topical administration” for “Topical administration”, “of the” for “of”, “of 1.91” for “of 0.48”, “mCi (=70.67” for “mCi (=17.76”, “of 1.0 ml (flushing with 0.3 ml of physiological saline solution).” for “of 0.85 ml.”
During the entire experiment, the test animal was under a gamma camera (Elscint SP4 HR) to measure the dispersion of radioactivity in the body. The activity in the lesion was set as a proportion of the total activity (measured at this time in the animal).

[2] = Topical administration via microperforated balloon catheter after balloon denudation of the infraranal aorta, gamma camera measurement of activity in the lesion; type: in vivo, white New Zealand rabbit
Experimental: The test animal was a white New Zealand rabbit (internal animal identification no.: 1584, male, 3.4 kg of body weight).
(§3) Under anesthesia (Rompun/Ketavet 1:2, 1 ml/kg of body weight, i.m. administration), the endothelium was damaged with a balloon catheter in the infraranal aorta (balloon denudation). Then, over a period of 5 minutes, technetium 99m-labeled HMPAO was administered to the test animal via a microperforated balloon catheter (4 mm Match-35 PTA, Schneider Company, FRG). The radioactive dose of 0.64 mCi (=23.68 MBq) was administered in a volume of 1 ml.
as §2, with “activity in” for “activity at”
The test animal was a white New Zealand rabbit (internal animal identification no.: 1587, male, 3.5 kg of body weight).
as §3, with “1.18” for “0.64”, “(=43.66” for “(=23.68”
The test animal was a white New Zealand rabbit (internal animal identification no.: 1586, male, 3.3 kg of body weight).
as §3, with “0.45” for “0.64”, “(=16.65” for “(=23.68”

% of the dose at the lesion (activity at the lesion as proportion of total activity in the animal) ([1]; 5 minutes post administration): 55.38%
% of the dose at the lesion (activity in the lesion as proportion of total activity in the animal) ([1]; 5 minutes post administration): 40.74%
% of the dose at the lesion (activity at the lesion as proportion of total activity in the animal) ([1]; 4 hours post administration): 46.78%
% of the dose at the lesion (activity in the lesion as proportion of total activity in the animal) ([1]; 4 hours post administration): 35.13%
% of the dose at the lesion (activity at the lesion as proportion of total activity in the animal) ([1]; 24 hours post administration): 21.45%
% of the dose at the lesion (activity in the lesion as proportion of total activity in the animal) ([1]; 24 hours post administration): 23.69%
% of the dose at the lesion (activity in the lesion as proportion of total activity in the animal) ([2]; 5 minutes post administration, Example 3, rabbit no. 1584, 0.64 mCi in 1 ml): 38.45%
% of the dose at the lesion (activity in the lesion as proportion of total activity in the animal) ([2]; 5 minutes post administration, Example 4, rabbit no. 1587, 1.18 mCi in 1 ml): 37.06%
% of the dose at the lesion (activity in the lesion as proportion of total activity in the animal) ([2]; 5 minutes post administration, Example 5, rabbit no. 1586, 0.45 mCi in 1 ml): 45.56%
% of the dose at the lesion (activity in the lesion as proportion of total activity in the animal) ([2]; 4 hours post administration, Example 3, rabbit no. 1584, 0.64 mCi in 1 ml): 35.64%
% of the dose at the lesion (activity in the lesion as proportion of total activity in the animal) ([2]; 4 hours post administration, Example 4, rabbit no. 1587, 1.18 mCi in 1 ml): 32.03%
% of the dose at the lesion (activity in the lesion as proportion of total activity in the animal) ([2]; 4 hours post administration, Example 5, rabbit no. 1586, 0.45 mCi in 1 ml): 36.39%
% of the dose at the lesion (activity in the lesion as proportion of total activity in the animal) ([2]; 24 hours post administration, Example 3, rabbit no. 1584, 0.64 mCi in 1 ml): 16.63%
% of the dose at the lesion (activity in the lesion as proportion of total activity in the animal) ([2]; 24 hours post administration, Example 4, rabbit no. 1587, 1.18 mCi in 1 ml): 20.01%
% of the dose at the lesion (activity in the lesion as proportion of total activity in the animal) ([2]; 24 hours post administration, Example 5, rabbit no. 1586, 0.45 mCi in 1 ml): 15.24%
Compound: C/C(=N\O)C(C)NCC(C)(C)CNC(C)/C(C)=N/O (stereo not drawn) [Example 99mTc-HMPAO, metal not drawn]
